Results taken from US10294229B2, “Heteroaryl substituted aminopyridine compounds” (BRISTOL-MYERS SQUIBB COMPANY, priority 2015, dated 2019).

Experiments:
[1] = system: Human whole blood stimulated with a TLR2 agonist (lipoteichoic acid), IL-6 levels; test: IRAK4 Whole Blood Assay; format: cell-based; details: lipoteichoic acid 10 μg/mL
Outline: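 IL-6 was quantified by cytometric bead assay in supernatants of human blood (ACD-A) stimulated for 5 h with lipoteichoic acid at 10 μg/mL final. Compound exposure preceded stimulation for 60 min at 37 °C, 5% CO2.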

[2] = target: IRAK4 (Homo sapiens (Human), UniProt Q9NWZ3); test: IRAK4 Inhibition Assay; format: biochemical; details: ATP 500 μM; IRAK4 0.6 nM
Chain of IRAK4 (Q9NWZ3 whole entry, species assumed): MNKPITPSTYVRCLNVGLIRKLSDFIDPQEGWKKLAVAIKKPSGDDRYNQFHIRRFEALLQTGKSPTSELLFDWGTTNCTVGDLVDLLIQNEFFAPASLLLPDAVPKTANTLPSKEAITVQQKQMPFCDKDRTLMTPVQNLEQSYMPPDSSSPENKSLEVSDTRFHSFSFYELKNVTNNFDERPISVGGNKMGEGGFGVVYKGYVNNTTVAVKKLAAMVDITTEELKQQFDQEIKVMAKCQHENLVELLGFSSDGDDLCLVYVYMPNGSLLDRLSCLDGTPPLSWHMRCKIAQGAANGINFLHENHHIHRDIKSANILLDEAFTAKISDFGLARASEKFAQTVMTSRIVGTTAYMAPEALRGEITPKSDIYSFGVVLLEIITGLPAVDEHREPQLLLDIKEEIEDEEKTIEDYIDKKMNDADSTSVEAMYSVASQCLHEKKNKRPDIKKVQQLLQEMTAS
Outline: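 Mobility-shift kinase assay: 0.6 nM IRAK4, 500 μM ATP, 1.5 μM fluorescent peptide, 60 min, room temperature. Percent inhibition was normalised between enzyme-free and DMSO-only wells.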

[3] = Caco-2 Permeability Assay; format: in vitro ADME; details: human, Caco-2, test compound 3 μM
Outline: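 Bidirectional permeability measured over 2 h at 37° C, compound dosed at 3 μM in the donor compartment (apical for absorptive, basolateral for secretive) with plain buffer as receiver.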

| SMILES | EC50 ([1]; Homo sapiens) [nM] | IC50 [2] [nM] | Papp at 2 h, 3 µM [3] [×10⁻⁶ cm/s] | EC50 [1] [nM] |
| --- | --- | --- | --- | --- |
| CC(C)Nc1cc(-n2ncc3cc(C#N)cnc32)ncc1-c1cn(C2CCN(S(C)(=O)=O)CC2)nn1 [Example 196, 1-(4-(isopropylamino)-5-(1-(1-(methylsulfonyl)piperidin-4-yl)-1H-1,2,3-triazol-4-yl)pyridin-2-yl)-1H-pyrazolo[3,4-b]pyridine-5-carbonitrile] | 1210 | 4 | 4.7 | – |
| CC(=O)N1CC[C@H](n2cc(-c3cnc(-n4ncc5cc(C#N)cnc54)cc3NC(C)C)nn2)[C@H](O)C1 [Example 178, 1-(5-(1-((3R,4S)-1-acetyl-3-hydroxypiperidin-4-yl)-1H-1,2,3-triazol-4-yl)-4-(isopropylamino)pyridin-2-yl)-1H-pyrazolo[3,4-b]pyridine-5-carbonitrile] | 530 | 6 | < 1.5 | – |
| CC(=O)N1CC(n2cc(-c3cnc(-n4ncc5cc(C#N)cnc54)cc3NC(C)C)nn2)C1 [Example 154, 1-(5-(1-(1-acetylazetidin-3-yl)-1H-1,2,3-triazol-4-yl)-4-(isopropylamino)pyridin-2-yl)-1H-pyrazolo[3,4-b]pyridine-5-carbonitrile] | 150 | 4 | < 1.5 | – |
| CC(=O)N1CCC(F)(c2cc(-c3cnc(-n4ncc5cc(C#N)cnc54)cc3NC(C)C)on2)CC1 [Example 421, 1-(5-(3-(1-acetyl-4-fluoropiperidin-4-yl)isoxazol-5-yl)-4-(isopropylamino)pyridin-2-yl)-1H-pyrazolo[3,4-b]pyridine-5-carbonitrile] | 200 | 3 | 32.2 | – |
| CCCc1cn(-c2cnc(-n3ncc4cc(C#N)c(N)nc43)cc2NC(C)C)nn1 [Example 280, 6-amino-1-(4-(isopropylamino)-5-(4-propyl-1H-1,2,3-triazol-1-yl)pyridin-2-yl)-1H-pyrazolo[3,4-b]pyridine-5-carbonitrile] | 230 | 3 | 27.6 | – |
| CC(=O)N1CC[C@H]1c1cc(-c2cnc(-n3ncc4cc(C#N)cnc43)cc2NC(C)C)on1 [Example 427, (S)-1-(5-(3-(1-acetylazetidin-2-yl)isoxazol-5-yl)-4-(isopropylamino)pyridin-2-yl)-1H-pyrazolo[3,4-b]pyridine-5-carbonitrile] | 250 | 15 | 8 | – |
| CC(O)Cc1cn(-c2cnc(-n3ncc4cc(C#N)cnc43)cc2NCC(C)(C)O)nn1 (stereo not drawn) [Example 264, 1-(4-((2-hydroxy-2-methylpropyl)amino)-5-(4-(2-hydroxypropyl)-1H-1,2,3-triazol-1-yl)pyridin-2-yl)-1H-pyrazolo[3,4-b]pyridine-5-carbonitrile] | 330 | 8 | 22.5 | – |
| CC(C)Nc1cc(-n2ncc3cc(C#N)cnc32)ncc1-n1cc(CCC(C)(C)O)cn1 [Example 390, 1-(5-(4-(3-hydroxy-3-methylbutyl)-1H-pyrazol-1-yl)-4-(isopropylamino)pyridin-2-yl)-1H-pyrazolo[3,4-b]pyridine-5-carbonitrile] | 270 | 8 | 37.1 | – |
| CC(=O)NC1CCC(c2cn(-c3cnc(-n4ncc5cc(C#N)cnc54)cc3NC(C)C)nn2)CC1 (stereo not drawn) [Example 341, N-((1s,4s)-4-(1-(6-(5-cyano-1H-pyrazolo[3,4-b]pyridin-1-yl)-4-(isopropylamino)pyridin-3-yl)-1H-1,2,3-triazol-4-yl)cyclohexyl)acetamide] | 300 | 3 | < 1.5 | – |
| CC(C)Nc1cc(-n2ncc3cc(C#N)cnc32)ncc1-c1cc([C@H]2CCNC2)no1 [Example 404, (S)-1-(4-(isopropylamino)-5-(3-(pyrrolidin-3-yl)isoxazol-5-yl)pyridin-2-yl)-1H-pyrazolo[3,4-b]pyridine-5-carbonitrile] | 230 | 3 | < 1.5 | – |
| CC(C)Nc1cc(-n2ncc3cc(C#N)cnc32)ncc1-c1cn(C2CN(C(C)C)C2)nn1 [Example 150, 1-(4-(isopropylamino)-5-(1-(1-isopropylazetidin-3-yl)-1H-1,2,3-triazol-4-yl)pyridin-2-yl)-1H-pyrazolo[3,4-b]pyridine-5-carbonitrile] | 450 | 2 | 9.1 | – |
| CC(C)Nc1cc(-n2ncc3cc(C#N)cnc32)ncc1-n1cc(C2CCN(C(C)C)CC2)nn1 [Example 337, 1-(4-(isopropylamino)-5-(4-(1-isopropylpiperidin-4-yl)-1H-1,2,3-triazol-1-yl)pyridin-2-yl)-1H-pyrazolo[3,4-b]pyridine-5-carbonitrile] | 280 | 6 | < 1.5 | – |
| CC(C)Nc1cc(-n2ncc3cc(C#N)c(N)nc32)ncc1-c1cn(C2CCCCC2)nn1 [Example 25, 6-amino-1-(5-(1-cyclohexyl-1H-1,2,3-triazol-4-yl)-4-(isopropylamino)pyridin-2-yl)-1H-pyrazolo[3,4-b]pyridine-5-carbonitrile] | 800 | 2 | 4.9 | – |
| CC(C)Nc1cc(-n2ncc3cc(C#N)cnc32)ncc1-c1cn([C@@H]2CCN(C(=O)C(C)(C)C)C[C@H]2O)nn1 (single isomer, unassigned) [Example 206] | 1900 | 3 | 2 | – |
| CC(C)Nc1cc(-n2ncc3cc(C#N)cnc32)ncc1-c1cn([C@@H]2CCN(S(C)(=O)=O)C[C@H]2F)nn1 (single isomer, unassigned) [Example 210, 1-(5-(1-((trans)-3-fluoro-1-(methylsulfonyl)piperidin-4-yl)-1H-1,2,3-triazol-4-yl)-4-(isopropylamino)pyridin-2-yl)-1H-pyrazolo[3,4-b]pyridine-5-carbonitrile] | 510 | 2 | 4.3 | – |
| CC(=O)Cn1cc(-c2cnc(-n3ncc4cc(C#N)cnc43)cc2NC(C)C)nn1 [Example 170, 1-(4-(isopropylamino)-5-(1-(2-oxopropyl)-1H-1,2,3-triazol-4-yl)pyridin-2-yl)-1H-pyrazolo[3,4-b]pyridine-5-carbonitrile] | 430 | 2 | 4.5 | – |
| CC(=O)N1CC(c2cn(-c3cnc(-n4ncc5cc(C#N)cnc54)cc3NC(C)C)nn2)C1 [Example 339, 1-(5-(4-(1-acetylazetidin-3-yl)-1H-1,2,3-triazol-1-yl)-4-(isopropylamino)pyridin-2-yl)-1H-pyrazolo[3,4-b]pyridine-5-carbonitrile] | 390 | 5 | < 1.5 | – |
| CCCn1cnc(-c2cnc(-n3ncc4cc(C#N)cnc43)cc2NC(C)C)c1 [Example 219] | 1480 | 10 | 31.8 | – |
| CC(C)Nc1cc(-n2ncc3cc(C#N)cnc32)ncc1-c1cn(CC(=O)N2CCNCC2)nn1 [Example 192, 1-(4-(isopropylamino)-5-(1-(2-oxo-2-(piperazin-1-yl)ethyl)-1H-1,2,3-triazol-4-yl)pyridin-2-yl)-1H-pyrazolo[3,4-b]pyridine-5-carbonitrile] | 150 | 3 | < 1.5 | – |
| CC(C)Nc1cc(-n2ccc3cncnc32)ncc1-c1cn(CCN2CCOCC2)nn1 [Example 3, N-isopropyl-5-(1-(2-morpholinoethyl)-1H-1,2,3-triazol-4-yl)-2-(7H-pyrrolo[2,3-d]pyrimidin-7-yl)pyridin-4-amine] | 560 | 2 | 33 | – |
| CC(=O)N1CC[C@@H](n2cc(-c3cnc(-n4ncc5cc(C#N)cnc54)cc3NC(C)C)nn2)[C@@H](O)C1 [Example 191, 1-(5-(1-((3S,4R)-1-acetyl-3-hydroxypiperidin-4-yl)-1H-1,2,3-triazol-4-yl)-4-(isopropylamino)pyridin-2-yl)-1H-pyrazolo[3,4-b]pyridine-5-carbonitrile] | 390 | 16 | < 1.5 | – |
| CC(F)Cc1cn(-c2cnc(-n3ncc4cc(C#N)cnc43)cc2NC2CC2)nn1 (stereo not drawn) [Example 354, 1-(4-(cyclopropylamino)-5-(4-(2-fluoropropyl)-1H-1,2,3-triazol-1-yl)pyridin-2-yl)-1H-pyrazolo[3,4-b]pyridine-5-carbonitrile] | – | 14 | 36 | 150 |
| CC(C)Nc1cc(-n2ncc3cc(C#N)cnc32)ncc1-c1cc(C(CO)CO)no1 [Example 399, 1-(5-(3-(1,3-dihydroxypropan-2-yl)isoxazol-5-yl)-4-(isopropylamino)pyridin-2-yl)-1H-pyrazolo[3,4-b]pyridine-5-carbonitrile] | 140 | 10 | < 1.5 | – |
| CCCn1cc(-c2cnc(-n3ncc4cc(C#N)cnc43)cc2NC2CCOCC2)nn1 [Example 49, 1-(5-(1-propyl-1H-1,2,3-triazol-4-yl)-4-((tetrahydro-2H-pyran-4-yl)amino)pyridin-2-yl)-1H-pyrazolo[3,4-b]pyridine-5-carbonitrile] | 580 | 4 | 28.8 | – |
| CCCn1cc(-c2cnc(-n3ncc4cc(C#N)cnc43)cc2N[C@@H](C)CO)nn1 [Example 52, (S)-1-(4-((1-hydroxypropan-2-yl)amino)-5-(1-propyl-1H-1,2,3-triazol-4-yl)pyridin-2-yl)-1H-pyrazolo[3,4-b]pyridine-5-carbonitrile] | 430 | 3 | 3.4 | – |
